Measurements published in patent US11503828B2, “Antibacterial hydrophilic compound and use thereof” (SHENZHEN UNIVERSITY, priority 2017, dated 2022).

Assays:
[1] = Hydrophilicity (core height) of modified PET cloth, FIG. 5; assay type: physicochemical; settings: modified PET cloth (B) vs unmodified PET (A)
Text: FIG. 5 is a diagram illustrating hydrophilicity of PET cloth treated with an antibacterial hydrophilic compound according to Example 1 of the present disclosure.

Staphylococcus aureus = assay: Antibacterial activity of modified PET cloth by plate counting method; assay type: cell-based; parameters: Antibacterial activity, Washing one time: concentration or dose not given beside the values; settings: S. aureas
Protocol: (§1) The antibacterial hydrophilic compounds obtained in Examples 1-29 may be formulated into a finishing liquid having a mass concentration of 0.1-10% using water as a solvent, and the PET cloth may be impregnated and modified by the finishing liquid. After irradiation for 1 minute at ultraviolet light (wavelength: 254 nm), the antibacterial activity against Escherichia coli and Staphylococcus aureus may be tested by plate counting method, and their hydrophilicity (water contact angle of untreated PET may be 92 degrees) may be tested.

Escherichia coli = assay: as above; assay type: cell-based; parameters: Antibacterial activity, Washing one time: concentration or dose not given beside the values; settings: E. coli
Protocol: as §1

[2] = Hydrophilicity (water contact angle) of modified PET cloth; assay type: physicochemical; settings: for Contact angel: water contact angle of PET cloth modified with finishing liquid, UV 254 nm 1 minute, untreated PET 92 degrees
Protocol: as §1
FIG. 3 illustrates a change in a contact angle of PET cloth treated or untreated by an antibacterial hydrophilic compound according to Example 13 of the present disclosure, where section (A) is a photograph of untreated PET cloth, and section (B) is a photograph of treated PET clot.

Row | Structure (SMILES) | core height vs unmodified PET [1] | Antibacterial activity, Washing 50 times (Staphylococcus aureus) | Antibacterial activity, Washing one time (Staphylococcus aureus) | Antibacterial activity, Washing 50 times (Escherichia coli) | Antibacterial activity, Washing one time (Escherichia coli) | Contact angel [2] | water contact angle of the treated PET cloth ([2]; FIG. 3, untreated PET cloth 92 degrees)
1 | C[N+](C)(CCCS(=O)(=O)[O-])c1ccc(C(=O)c2ccc([N+](C)(C)CCCS(=O)(=O)[O-])cc2)cc1 [Example 1] | significantly greater | 92.9% | 99.99% | 88.5% | 99.99% | 0 degrees | 
2 | C[N+](C)(CCCCS(=O)(=O)[O-])CCOc1ccc(C(=O)c2ccccc2)cc1 [Example 2] |  | 89.9% |  | 86.2% | 99.99% | 0 degrees | 
3 | CCOP(=O)([O-])OCC[N+](C)(C)Cc1ccc(C(=O)c2ccccc2)cc1 [Example 3] |  | 90.2% | 99.99% | 87.8% | 99.99% | 0 degrees | 
4 | C[N+](C)(CCC(=O)[O-])c1ccc(C(=O)Oc2ccc(C(=O)c3ccccc3)cc2)cc1 [Example 4] |  | 80.9% | 99.99% | 86.9% | 99.99% | 0 degrees | 
5 | C[N+](C)(CCS(=O)(=O)[O-])Cc1ccc(C(=O)c2ccccc2)cc1 [Example 6] |  | 89.7% |  | 86.6% | 99.99% | 0 degrees | 
6 | CCCCCCCC[N+](C)(C)CCOC(=O)Nc1ccc(C(=O)c2ccccc2)cc1.[Br-] [Example 11] |  | 99.9% | 99.99% | 92.8% | 99.99% | 0 degrees | 
7 | CCCCCCCCCCCC[N+](C)(C)c1ccc(C(=O)Oc2ccc(C(=O)c3ccccc3)cc2)cc1 [Example 13] |  | 96.9% | 99.99% | 91.7% | 99.99% | 0 degrees | 0 °
8 | CCCCCCCCCCCC[N+](C)(C)Cc1ccc(C(=O)c2ccccc2)cc1 [Example 14] |  | 96.9% | 99.99% | 91.7% | 99.99% | 0 degrees | 
9 | CCCCCCCCCC[N+](C)(C)Cc1ccc(C(=O)c2ccc(C[N+](C)(C)CCCCCCCCCC)cc2)cc1 [Example 15] |  | 99.9% |  | 96.8% | 99.99% | 0 degrees | 
10 | CCCCCCCCCC[N+](C)(C)Cc1ccc2c(c1)C(=O)c1ccccc1C2=O [Example 16] |  | 98.5% |  | 91.7% | 99.99% | 0 degrees | 
11 | CCCCCCCCCCCC[N+](C)(C)CCOC(=O)Nc1ccc(C)c(NC(=O)Nc2ccccc2C(=O)c2ccc(Cl)cc2)c1 [Example 18] |  | 99.9% | 99.99% | 95.8% | 99.99% | 0 degrees | 
12 | CCCCCCCC[N+](C)(C)Cc1cn(Cc2ccc(C(=O)c3ccccc3)cc2)nn1 [Example 19] |  | 99.6% | 99.99% | 92.8% | 99.99% | 0 degrees | 
13 | CC1(C)C(=O)N(COC(=O)Nc2ccc(C(=O)c3ccccc3)cc2)C(C)(C)N1Cl [Example 26] |  | 99.9% |  | 97.9% | 99.99% | 45 degrees | 
14 | CC1(C)C(=O)N(Cc2ccc(C(=O)c3ccccc3)cc2)C(=O)N1Cl [Example 27] |  | 99.8% |  | 94.9% | 99.99% | 50 degrees | 
15 | CC1(C)C(=O)N(CC(O)CNCc2ccc(C(=O)c3ccccc3)cc2)C(=O)N1Cl (centres unmarked) [Example 28] |  | 99.9% | 99.99% | 95.1% | 99.99% | 40 degrees | 
